Assays:
[1] = system: T1, Src, protein tyrosine Src kinase; assay: Inhibitor specificity against other enzymes: Src; assay type: biochemical
T1 construct: purchased Promega
Text: (§1) Enzyme tested are protein serine/threonine/tyrosine, lipid, sugar, and inorganic kinases, and K/Na ATPase. […] PKA, protein kinase A (solid circle), PKCα (solid square), Src, protein tyrosine Src kinase (solid triangle), Acka, acetate kinase from Escherichia coli (solid reverse triangle), HK, hexokinase from Saccharomyces cerevisiae (solid circle), PI3αKinase, p110α/p85α (square), K/K ATPase, Adenosine 5´-Triphosphatase from porcine cerebral cortex (circle), CD39 (ATP substrate, triangle), and CD39 (ADP substrate, reverse triangle); for CD73 (triangle) in panel B. Each point represents average of a typical experiment done in triplicates; results shown are mean ± SD.

PKA, protein kinase A = system: T2, PKA, protein kinase A; assay: Inhibitor specificity against other enzymes: PKA; assay type: biochemical
T2 construct: purchased Promega
Text: as §1

[2] = target: T3, Recombinant Human 5'-Nucleotidase/CD73 (Homo sapiens, UniProt P21589); assay: Enzyme activity of purified CD73 (AMP-Glo assay); assay type: biochemical; settings: for IC50: 0.1 ng CD73, 5min at 23°C
T3 construct: purchased R&D Systems
T3 sequence (P21589 27-574): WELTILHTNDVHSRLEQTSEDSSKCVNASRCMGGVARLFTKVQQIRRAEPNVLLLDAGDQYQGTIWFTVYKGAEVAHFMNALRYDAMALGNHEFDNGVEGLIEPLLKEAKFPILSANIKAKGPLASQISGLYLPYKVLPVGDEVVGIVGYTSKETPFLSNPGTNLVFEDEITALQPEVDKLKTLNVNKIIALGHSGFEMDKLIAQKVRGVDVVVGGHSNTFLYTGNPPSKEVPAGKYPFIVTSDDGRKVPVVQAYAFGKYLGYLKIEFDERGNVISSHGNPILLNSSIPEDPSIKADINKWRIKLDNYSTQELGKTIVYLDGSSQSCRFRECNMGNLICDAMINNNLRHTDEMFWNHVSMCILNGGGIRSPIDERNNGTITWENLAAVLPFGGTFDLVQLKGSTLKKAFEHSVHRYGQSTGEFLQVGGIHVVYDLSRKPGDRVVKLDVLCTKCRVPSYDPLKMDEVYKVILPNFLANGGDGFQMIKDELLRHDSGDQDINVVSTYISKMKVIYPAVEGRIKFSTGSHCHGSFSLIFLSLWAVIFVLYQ
Procedure: • Determination of enzyme activity of purified CD73. In a 25 μl reaction buffer (10mM HEPES, pH 7.4, 2mM MgCl2, 1mM CaCl2, and 0.1mg/ml BSA) containing enzyme and AMP substrate at 1μM to 10μM (96-well format), enzyme activity was performed at 23°C for specified time period and terminated by the addition of equal volume (25μl) of AMP-Glo™ Reagent I containing 50 μM (final concentration) of known CD73 inhibitor, such as AMPCP. Reactions were mixed well and incubated for additional 30 min at 23°C. This was followed by the addition of 50 μl of AMP Detection Solution (10μl of AMP-Glo™ Reagent II per ml of Kinase-Glo® One Solution) and incubated for additional 60 min at 23°C before reading luminescence.

[3] = system: Adenosine 5'-Triphosphatase from porcine cerebral cortex (Na+/K+-ATPase)
Text: as §1

PI3αKinase, p110α/p85α = system: T4, PI3αKinase, p110α/p85α; assay: Inhibitor specificity against other enzymes: PI3Kα; assay type: biochemical
T4 construct: purchased Promega
Text: as §1

HK, hexokinase = assay: Inhibitor specificity against other enzymes: hexokinase; assay type: biochemical, Saccharomyces cerevisiae
Text: as §1

CD39 (His-Tag Human) = target: T5, CD39 (His-Tag Human) (Homo sapiens, UniProt P49961); assay: Enzyme activity of purified CD39 with ATP or ADP as substrate; assay type: biochemical; settings: for inhibitory effect on purified CD39: 0.1ng CD39, 10 μM ATP or 10 μM ADP, 30min at 37°C
T5 construct: His; purchased R&D Systems
T5 sequence (P49961 1-510): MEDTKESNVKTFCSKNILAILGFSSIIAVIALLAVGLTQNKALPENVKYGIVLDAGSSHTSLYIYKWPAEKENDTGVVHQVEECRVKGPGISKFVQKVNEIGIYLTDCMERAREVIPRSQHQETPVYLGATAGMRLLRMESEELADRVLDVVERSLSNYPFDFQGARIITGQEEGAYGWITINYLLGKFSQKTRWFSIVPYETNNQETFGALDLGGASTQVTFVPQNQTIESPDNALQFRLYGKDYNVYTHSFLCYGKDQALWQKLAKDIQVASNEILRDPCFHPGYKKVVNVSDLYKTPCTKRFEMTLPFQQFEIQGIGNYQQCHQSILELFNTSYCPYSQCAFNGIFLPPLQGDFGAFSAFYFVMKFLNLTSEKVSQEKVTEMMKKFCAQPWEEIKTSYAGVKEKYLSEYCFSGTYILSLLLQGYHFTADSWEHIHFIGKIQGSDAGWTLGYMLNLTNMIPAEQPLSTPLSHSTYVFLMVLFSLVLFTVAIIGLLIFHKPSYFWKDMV
Procedure: • 2 Determination of enzyme activity of purified cytosolic cN-II. Activity of purified cN-II (Human cytosolic 5'-Nucleotidase) was determined using 25μl reaction buffer (50mM HEPES, pH 7.0, 100mM KCl, 20mM MgCl2, 5mM DTT, 2.5mM dATP, and 0.1mg/ml BSA) containing enzyme and AMP substrate at 10μM (96-well format). Reaction continued at 37°C for 60 minutes or for a certain time period and terminated by the addition of equal volume (25μl) of AMP-Glo™ Reagent I. Reactions were mixed well and incubated for additional 30 min at 23°C. This was followed by the addition of 50 μl of AMP Detection Solution (10μl of AMP-Glo™ Reagent II per ml of Kinase-Glo® One Solution) and incubated for additional 60 min at 23°C before reading luminescence. • 3 Determination of enzyme activity of purified CD39. […] When ATP is used as a substrate, an equal volume of Kinase-Glo® One Solution was added to CD39 reactions and incubated for 15 min before reading luminescence using a luminometer. When ADP is used as a substrate for CD39, after enzyme reaction completion, an equal volume of AMP Detection Solution with a known CD39 known inhibitor, such as POM 1 at 50μM final concentration was added. Reactions were mixed well and incubated for 60min before reading luminescence using luminometer. For enzyme dilution, reaction buffer can be used for dilution of enzymes.

PKCα = system: T6, PKCα; assay: Inhibitor specificity against other enzymes: PKCα; assay type: biochemical
T6 construct: purchased Promega
Text: as §1

Acka, acetate kinase = system: T7, Acka, acetate kinase; assay: Inhibitor specificity against other enzymes: acetate kinase; assay type: biochemical, Escherichia coli
T7 construct: purchased Millipore Sigma
Text: as §1

Structure (SMILES)	inhibition of Src [1]	inhibition of PKA (PKA, protein kinase A)	effect on CD73 enzyme activity ([2]; purified CD73, 0.1ng, 1μM AMP, 5 min at 23°C (Fig 6))	inhibition of K+/Na+-ATPase [3]	inhibition of PI3Kα (PI3αKinase, p110α/p85α)	inhibition of hexokinase (HK, hexokinase)	inhibitory effect on purified CD39 (CD39 (His-Tag Human))	IC50 (CD39 (His-Tag Human); 10 μM ADP as substrate, 0.1 ng enzyme) [nM]	inhibition of PKCα (PKCα)	inhibition of acetate kinase (Acka, acetate kinase)	IC50 ([2]; 5 μM AMP) [nM]	IC50 ([2]; 10 μM AMP) [nM]
[Na+].[Na+].[Na+].[Na+].[Na+].[Na+].[O]=[W](=[O])([O-])[O-].[O]=[W](=[O])([O-])[O-].[O]=[W](=[O])([O-])[O-].[O]=[W](=[O])=[O].[O]=[W](=[O])=[O].[O]=[W](=[O])=[O].[O]=[W](=[O])=[O].[O]=[W](=[O])=[O].[O]=[W](=[O])=[O].[O]=[W](=[O])=[O].[O]=[W](=[O])=[O].[O]=[W](=[O])=[O] [POM1, Sodium metatungstate]	inhibited	inhibited	no effect	inhibited	inhibited	inhibited	inhibited	3700	inhibited	inhibited	–	–
Nc1ncnc2c1ncn2[C@@H]1O[C@H](COP(=O)(O)CP(=O)(O)O)[C@@H](O)[C@H]1O [AMP-CP, Adenosine 5'-(α, β-methylene) diphosphate]	no inhibition	minimal inhibition	–	no inhibition	no inhibition	no inhibition	no inhibitory effect	–	no inhibition	no inhibition	157	300

— article PMC6814236, “Monitoring and characterizing soluble and membrane-bound ectonucleotidases CD73 and CD39” (PLoS ONE, 2019)
